Assay results from US12018016B2, “Aryl sulfonyl (hydroxy) piperidines as CCR6 inhibitors” (CHEMOCENTRYX, INC., priority 2021, dated 2024).

molecular target: T1, human CCR6 (Homo sapiens, UniProt P51684); assay: Migration assay (chemotaxis, ChemoTX); type: cell-based; settings: hCCR6-transfected Ba/F3 cells in human serum, migration to recombinant human CCL20 10 nM, 37° C. 45 minutes; read-out: Potency (IC50 value in the migration assay)
T1 construct: expressed in transfected cells; host or cells: Ba/F3 cells (mouse pro-B line)
T1 sequence (P51684 1-374): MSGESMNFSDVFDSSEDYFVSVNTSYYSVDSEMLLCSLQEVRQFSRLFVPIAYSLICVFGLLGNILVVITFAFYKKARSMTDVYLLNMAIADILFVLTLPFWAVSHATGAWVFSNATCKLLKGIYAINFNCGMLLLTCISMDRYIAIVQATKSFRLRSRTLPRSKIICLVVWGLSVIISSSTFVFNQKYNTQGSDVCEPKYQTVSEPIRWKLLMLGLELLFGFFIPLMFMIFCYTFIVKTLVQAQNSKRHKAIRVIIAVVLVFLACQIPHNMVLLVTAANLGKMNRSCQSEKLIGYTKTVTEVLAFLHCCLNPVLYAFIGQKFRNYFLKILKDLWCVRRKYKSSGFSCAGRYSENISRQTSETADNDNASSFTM
Source text: A chemotaxis assay can be used to determine the efficacy of potential receptor antagonists at blocking the migration mediated through chemokine receptors, such as CCR6. This assay is routinely performed using the ChemoTX® microchamber system with a 5-μm pore-sized polycarbonate membrane. Chemokine receptor-expressing cells are required for such an assay. In this case, Ba/F3 cells (Palacios et al., Nature, 309:126, 1984) transfected with the gene for human CCR6 under control of the CMV promotor were used. To begin such an assay, hCCR6-transfected Ba/F3 cells are first grown for 24 hr in medium supplemented with sodium butyrate, which increases CCR6 transcription via the CMV promotor. The prepared Ba/F3 cells, are collected by centrifugation at 400×g at room temperature, then suspended at 4 million/ml in human serum. The compound being tested is serially diluted from a maximum final concentration of 1 μM (or an equivalent volume of its solvent (DMSO)) and is then added to the cell/serum mixture. Separately, recombinant human CCL20 (MIP-3α/LARC) at its EC50 concentration (10 nM) is placed in the lower wells of the ChemoTX® plate. The 5-μm (pore size) polycarbonate membrane is placed onto the plate, and 20 μL of the cell/compound mixture is transferred onto each well of the membrane. The plates are incubated at 37° C. for 45 minutes, after which the polycarbonate membranes are removed and 5 μl of the DNA-intercalating dye CyQUANT (Invitrogen, Carlsbad, CA) is added to the lower wells. The amount of fluorescence, corresponding to the number of migrated cells, is measured using a Spectrafluor Plus plate reader (TECAN, San Jose, CA).

IC50 [nM]	Molecule
1 to 10	Cc1nnc(-c2cc(-c3ccc(S(=O)(=O)N4CC[C@@H](Nc5ccc(C(F)(F)F)cn5)[C@@H](O)C4)cc3)ccn2)[nH]1 [Compound 64, (3S,4R)-1-((4-(2-(5-methyl-4H-1,2,4-triazol-3-yl)pyridin-4-yl)phenyl)sulfonyl)-4-((5-(trifluoromethyl)pyridin-2-yl)amino)piperidin-3-ol]
10 to 1000	Cn1ccnc1-c1cc(-c2ccc(S(=O)(=O)N3CC[C@@H](Nc4ccc(C(F)(F)F)cn4)[C@@H](O)C3)cc2)ccn1 [Compound 65, (3S,4R)-1-((4-(2-(1-methyl-1H-imidazol-2-yl)pyridin-4-yl)phenyl)sulfonyl)-4-((5-(trifluoromethyl)pyridin-2-yl)amino)piperidin-3-ol]
1 to 10	Cc1noc(-c2cc(-c3ccc(S(=O)(=O)N4CC[C@@H](Nc5ccc(C(F)(F)F)cn5)[C@@H](O)C4)cc3)ccn2)n1 [Compound 66, (3S,4R)-1-((4-(2-(3-methyl-1,2,4-oxadiazol-5-yl)pyridin-4-yl)phenyl)sulfonyl)-4-((5-(trifluoromethyl)pyridin-2-yl)amino)piperidin-3-ol]
< 1	Cc1nc(-c2cc(-c3ccc(S(=O)(=O)N4CC[C@@H](Nc5ccc(C(F)(F)F)cn5)[C@@H](O)C4)cc3)ccn2)no1 [Compound 67, (3S,4R)-1-((4-(2-(5-methyl-1,2,4-oxadiazol-3-yl)pyridin-4-yl)phenyl)sulfonyl)-4-((5-(trifluoromethyl)pyridin-2-yl)amino)piperidin-3-ol]
< 1	O=S(=O)(c1ccc(-c2ccnc(-c3nnco3)c2)cc1)N1CC[C@@H](Nc2ccc(C(F)(F)F)cn2)[C@@H](O)C1 [Compound 68, (3S,4R)-1-((4-(2-(1,3,4-oxadiazol-2-yl)pyridin-4-yl)phenyl)sulfonyl)-4-((5-(trifluoromethyl)pyridin-2-yl)amino)piperidin-3-ol]
< 1	Nc1nnc(-c2cc(-c3ccc(S(=O)(=O)N4CC[C@@H](Nc5ccc(C(F)(F)F)cn5)[C@@H](O)C4)cc3)ccn2)o1 [Compound 69, (3S,4R)-1-((4-(2-(5-amino-1,3,4-oxadiazol-2-yl)pyridin-4-yl)phenyl)sulfonyl)-4-((5-(trifluoromethyl)pyridin-2-yl)amino)piperidin-3-ol]
< 1	Cc1cnc(-c2cc(-c3ccc(S(=O)(=O)N4CC[C@@H](Nc5ccc(C(F)(F)F)cn5)[C@@H](O)C4)cc3)ccn2)o1 [Compound 70, (3S,4R)-1-((4-(2-(5-methyloxazol-2-yl)pyridin-4-yl)phenyl)sulfonyl)-4-((5-(trifluoromethyl)pyridin-2-yl)amino)piperidin-3-ol]
< 1	Cn1c(-c2ccc(S(=O)(=O)N3CC[C@@H](Nc4ccc(C(F)(F)F)cn4)[C@@H](O)C3)cc2)cnc1C(N)=O [Compound 71, 5-(4-(((3S,4R)-3-hydroxy-4-((5-(trifluoromethyl)pyridin-2-yl)amino)piperidin-1-yl)sulfonyl)phenyl)-1-methyl-1H-imidazole-2-carboxamide]
1 to 10	Cn1cc(-c2ccc(S(=O)(=O)N3CC[C@@H](Nc4ccc(C(F)(F)F)cn4)[C@@H](O)C3)cc2)nc1C(N)=O [Compound 72, 4-(4-(((3S,4R)-3-hydroxy-4-((5-(trifluoromethyl)pyridin-2-yl)amino)piperidin-1-yl)sulfonyl)phenyl)-1-methyl-1H-imidazole-2-carboxamide]
1 to 10	NC(=O)c1cc(-c2ccc(S(=O)(=O)N3CC[C@@H](Nc4ccc(C(F)(F)F)cn4)[C@@H](O)C3)cc2)n[nH]1 [Compound 73, 3-(4-(((3S,4R)-3-hydroxy-4-((5-(trifluoromethyl)pyridin-2-yl)amino)piperidin-1-yl)sulfonyl)phenyl)-1H-pyrazole-5-carboxamide]
1 to 10	O=C(NO)c1cc(-c2ccc(S(=O)(=O)N3CC[C@@H](Nc4ccc(C(F)(F)F)cn4)[C@@H](O)C3)cc2)ccn1 [Compound 74, N-hydroxy-4-(4-(((3S,4R)-3-hydroxy-4-((5-(trifluoromethyl)pyridin-2-yl)amino)piperidin-1-yl)sulfonyl)phenyl)picolinamide]
< 1	Cc1cnc(C#N)c(C)c1-c1ccc(S(=O)(=O)N2CC[C@@H](Nc3ccc(C(F)(F)F)cn3)[C@@H](O)C2)cc1 [Compound 75, 4-(4-(((3S,4R)-3-hydroxy-4-((5-(trifluoromethyl)pyridin-2-yl)amino)piperidin-1-yl)sulfonyl)phenyl)-3,5-dimethylpicolinonitrile]
1 to 10	O=S(=O)(c1ccc(-c2cncc(N3CCNCC3)c2)cc1)N1CC[C@@H](Nc2ccc(C(F)(F)F)cn2)[C@@H](O)C1 [Compound 76, (3S,4R)-1-((4-(5-(piperazin-1-yl)pyridin-3-yl)phenyl)sulfonyl)-4-((5-(trifluoromethyl)pyridin-2-yl)amino)piperidin-3-ol]
< 1	N#Cc1n[nH]c2c(F)cc(-c3ccc(S(=O)(=O)N4CC[C@@H](Nc5ccc(C(F)(F)F)cn5)[C@@H](O)C4)cc3)cc12 [Compound 77, 7-fluoro-5-(4-(((3S,4R)-3-hydroxy-4-((5-(trifluoromethyl)pyridin-2-yl)amino)piperidin-1-yl)sulfonyl)phenyl)-1H-indazole-3-carbonitrile]
< 1	Cc1cc(-c2ccc(S(=O)(=O)N3CC[C@@H](Nc4ccc(C(F)(F)F)cn4)[C@@H](O)C3)cc2)cc2c1C(=O)NC2 [Compound 78, 5-(4-(((3S,4R)-3-hydroxy-4-((5-(trifluoromethyl)pyridin-2-yl)amino)piperidin-1-yl)sulfonyl)phenyl)-7-methylisoindolin-1-one]
< 1	COc1cc(-c2ccc(S(=O)(=O)N3CC[C@@H](Nc4ccc(C(F)(F)F)cn4)[C@@H](O)C3)cc2)cc2cn[nH]c(=O)c12 [Compound 79, 6-(4-(((3S,4R)-3-hydroxy-4-((5-(trifluoromethyl)pyridin-2-yl)amino)piperidin-1-yl)sulfonyl)phenyl)-8-methoxyphthalazin-1(2H)-one]
< 1	Cc1cc(-c2ccc(S(=O)(=O)N3CC[C@@H](Nc4ccc(C(F)(F)F)cn4)[C@@H](O)C3)cc2)cc2c1CN(C(=O)N(C)C)C2 [Compound 80, 6-(4-(((3S,4R)-3-hydroxy-4-((5-(trifluoromethyl)pyridin-2-yl)amino)piperidin-1-yl)sulfonyl)phenyl)-N,N,4-trimethylisoindoline-2-carboxamide]
< 1	Cc1cc(C(F)(F)F)cnc1N[C@@H]1CCN(S(=O)(=O)c2ccc(-c3ccnc(C(N)=O)c3)cc2)C[C@@H]1O [Compound 82, 4-[4-[[(3S,4R)-3-hydroxy-4-[[3-methyl-5-(trifluoromethyl)-2-pyridyl]amino]-1-piperidyl]sulfonyl]phenyl]pyridine-2-carboxamide]
< 1	Cc1cc(C(F)(F)F)cnc1N[C@@H]1CCN(S(=O)(=O)c2ccc(-c3cnc(C(N)=O)n3C)cc2)C[C@@H]1O [Compound 83, 5-[4-[[(3S,4R)-3-hydroxy-4-[[3-methyl-5-(trifluoromethyl)-2-pyridyl]amino]-1-piperidyl]sulfonyl]phenyl]-1-methyl-imidazole-2-carboxamide]
< 1	Cc1nnc(-c2cc(-c3ccc(S(=O)(=O)N4CC[C@@H](Nc5ncc(C(F)(F)F)cc5C)[C@@H](O)C4)cc3)ccn2)o1 [Compound 84, (3S,4R)-1-[4-[2-(5-methyl-1,3,4-oxadiazol-2-yl)-4-pyridyl]phenyl]sulfonyl-4-[[3-methyl-5-(trifluoromethyl)-2-pyridyl]amino]piperidin-3-ol]
10 to 1000	N#Cc1cc(C(F)(F)F)cnc1N[C@@H]1CCN(S(=O)(=O)c2ccc(-c3ccnc(C(N)=O)c3)cc2)C[C@@H]1O [Compound 85, 4-(4-(((3S,4R)-4-((3-cyano-5-(trifluoromethyl)pyridin-2-yl)amino)-3-hydroxypiperidin-1-yl)sulfonyl)phenyl)picolinamide]
10 to 1000	NC(=O)c1cc(-c2ccc(S(=O)(=O)N3CC[C@@H](Nc4ncc(C(F)(F)F)cn4)[C@@H](O)C3)cc2)ccn1 [Compound 86, 4-(4-(((3S,4R)-3-hydroxy-4-((5-(trifluoromethyl)pyrimidin-2-yl)amino)piperidin-1-yl)sulfonyl)phenyl)picolinamide]
< 1	NC(=O)c1cc(-c2ccc(S(=O)(=O)N3CC[C@@H](Nc4ccc(Cl)cn4)[C@@H](O)C3)cc2)ccn1 [Compound 87]

Molecule	IC50 [nM]
4-(4-(((3S,4R)-3-hydroxy-4-((4-(trifluoromethyl)phenyl)amino)piperidin-1-yl)sulfonyl)phenyl)picolinamide [Compound 81]	< 1
